Measured values published in patent US8273759B2, “Fungicide heterocyclyl-pyrimidinyl-amino derivatives” (Bayer Cropscience AG, priority 2007, dated 2012).

Experiments:
[1] = log P by reversed-phase HPLC (EEC Directive 79/831 Annex V.A8); assay type: physicochemical; conditions: reversed-phase C 18, 40° C., 0.1% aqueous formic acid and acetonitrile gradient
Experimental: Temperature: 40° C.; Mobile phases: 0.1% aqueous formic acid and acetonitrile; linear gradient from 10% acetonitrile to 90% acetonitrile.

[2] = tested on: Pyricularia grisea; assay type: in vivo; conditions: 500 ppm; rice plants sprayed 24 hours before contamination; grading 6 days after contamination

| Compound | log PHCOOH [1] | other results |
| --- | --- | --- |
| COc1ccc(Nc2nccc(-c3ccnc(N(C)C)c3)n2)cn1 [Compound 1] | 1.24 |  |
| CCC(CO)Nc1cc(-c2ccnc(Nc3ccc(OC)nc3)n2)ccn1 (stereo not shown) [Compound 2] | 1.35 |  |
| c1cc(Nc2nccc(-c3ccnc(NC4CCC4)c3)n2)nc(NC2CCC2)c1 [Compound 3] | 1.12 |  |
| c1cc(Nc2nccc(-c3ccnc(NC4CCCCC4)c3)n2)nc(NC2CCCCC2)c1 [Compound 4] | 1.70 |  |
| c1cc(Nc2nccc(-c3ccnc(NCC4CC4)c3)n2)cc(NCC2CC2)n1 [Compound 5] | 0.97 |  |
| COCCCNc1cc(-c2ccnc(Nc3cccc(NCCCOC)n3)n2)ccn1 [Compound 6] | 0.83 |  |
| c1cc(NCC2CCCO2)nc(Nc2nccc(-c3ccnc(NCC4CCCO4)c3)n2)c1 (stereo not shown) [Compound 7] | 0.86 |  |
| Clc1cc(Nc2nccc(-c3ccnc(NC4CCCCC4)c3)n2)ccn1 [Compound 8] | 1.64 |  |
| CCC(COC)Nc1cc(-c2ccnc(Nc3ccnc(Cl)c3)n2)ccn1 (stereo not shown) [Compound 9, N-(2-chloropyridin-4-yl)-4-(2-{[1-(methoxymethyl)propyl]amino}pyridin-4-yl)pyrimidin-2-amine] |  | protection (good, at least 70%, or total), % of efficacy [2]: at least 70%; chromatographic logP ([1]; reversed-phase C18 HPLC column, read-out: log PHCOOH): 1.37 |
| CC(C)C(C)Nc1cc(-c2ccnc(Nc3ccnc(Cl)c3)n2)ccn1 (stereo not shown) [Compound 10] | 1.66 |  |
| Clc1cc(Nc2nccc(-c3ccnc(NC4CCC4)c3)n2)ccn1 [Compound 11] | 1.45 |  |
| CCCC(C)Nc1cc(-c2ccnc(Nc3ccnc(Cl)c3)n2)ccn1 (stereo not shown) [Compound 12] | 1.72 |  |
| CCC(CC)Nc1cc(-c2ccnc(Nc3ccnc(Cl)c3)n2)ccn1 [Compound 13] | 1.64 |  |
| Clc1cc(Nc2nccc(-c3ccnc(NC4CCCC4)c3)n2)ccn1 [Compound 14] | 1.58 |  |
| c1cc(Nc2nccc(-c3ccnc(NC4CCCCC4)c3)n2)cc(NC2CCCCC2)n1 [Compound 15] | 1.52 |  |
| c1cc(NCC2CC2)nc(Nc2nccc(-c3ccnc(NCC4CC4)c3)n2)c1 [Compound 16] | 0.96 |  |
| CCCCCNc1cc(Nc2nccc(-c3ccnc(NCCCCC)c3)n2)ccn1 [Compound 17] | 1.57 |  |
| CC(C)C(C)Nc1cc(Nc2nccc(-c3ccnc(NC(C)C(C)C)c3)n2)ccn1 (stereo not shown) [Compound 18] | 1.34 |  |
| c1cc(Nc2nccc(-c3ccnc(NC4CCC4)c3)n2)cc(NC2CCC2)n1 [Compound 19] | 1.05 |  |
| CCCC(C)Nc1cc(Nc2nccc(-c3ccnc(NC(C)CCC)c3)n2)ccn1 (stereo not shown) [Compound 20] | 1.43 |  |

| Compound | log PHCOOH [1] | other results |
| --- | --- | --- |
| CCC(CC)Nc1cc(Nc2nccc(-c3ccnc(NC(CC)CC)c3)n2)ccn1 [Compound 21] | 1.33 |  |
| c1cc(Nc2nccc(-c3ccnc(NC4CCCC4)c3)n2)cc(NC2CCCC2)n1 [Compound 22] | 1.22 |  |
| CCC(C)Nc1cc(Nc2nccc(-c3ccnc(NC(C)CC)c3)n2)ccn1 (stereo not shown) [Compound 23] | 1.10 |  |
| CCC(CC)Nc1cc(-c2ccnc(Nc3cccc(Cl)n3)n2)ccn1 [Compound 24] | 2.09 |  |
| CCC(C)Nc1cc(-c2ccnc(Nc3cccc(Cl)n3)n2)ccn1 (stereo not shown) [Compound 25] | 2.00 |  |
| CC(C)C(C)Nc1cc(-c2ccnc(Nc3cccc(Cl)n3)n2)ccn1 (stereo not shown) [Compound 26] | 2.15 |  |
| Clc1cccc(Nc2nccc(-c3ccnc(NCC4CCCO4)c3)n2)n1 (stereo not shown) [Compound 27] | 1.64 |  |
| CC(CN(C)C)Nc1cc(-c2ccnc(Nc3cccc(Cl)n3)n2)ccn1 (stereo not shown) [Compound 28] | 1.42 |  |
| CCC(COC)Nc1cc(-c2ccnc(Nc3cccc(Cl)n3)n2)ccn1 (stereo not shown) [Compound 29] | 1.85 |  |
| CCC(CC)Nc1cc(-c2ccnc(Nc3cccc(NC(CC)CC)n3)n2)ccn1 [Compound 30] | 1.47 |  |
| c1cc(Nc2nccc(-c3ccnc(NC4CCCC4)c3)n2)nc(NC2CCCC2)c1 [Compound 31] | 1.23 |  |
| CCC(C)Nc1cc(-c2ccnc(Nc3cccc(NC(C)CC)n3)n2)ccn1 (stereo not shown) [Compound 32] | 1.23 |  |
| CC(C)C(C)Nc1cc(-c2ccnc(Nc3cccc(NC(C)C(C)C)n3)n2)ccn1 (stereo not shown) [Compound 33] | 1.43 |  |
| CCC(COC)Nc1cc(Nc2nccc(-c3ccnc(NC(CC)COC)c3)n2)ccn1 (stereo not shown) [Compound 34] | 1.10 |  |
| COCC(C)Nc1cc(-c2ccnc(Nc3ccnc(Cl)c3)n2)ccn1 (stereo not shown) [Compound 35] | 1.34 |  |
| COc1ccc(Nc2nccc(-c3ccnc(NC4COC4)c3)n2)cn1 [Compound 36] | 1.10 |  |
| COCC(C)Nc1cc(-c2ccnc(Nc3ccc(OC)nc3)n2)ccn1 (stereo not shown) [Compound 38] | 1.29 |  |
| CCC(C)Nc1cc(-c2ccnc(Nc3ccc(OC)nc3)n2)ccn1 (stereo not shown) [Compound 39] | 1.48 |  |
| COc1ccc(Nc2nccc(-c3ccnc(NCC(C)C)c3)n2)cn1 [Compound 46] | 1.42 |  |
